For three molecules, IC50 results are on record in patent publication US20250092065A1, “2-(INDAZOL-5-YL)-6-(PIPERIDIN-4-YL)-1,7-NAPHTHYRIDINE DERIVATIVES AND RELATED COMPOUNDS AS MODULATORS FOR SPLICING NUCLEIC ACIDS AND FOR THE TREATMENT OF PROLIFERATIVE DISEASES” (REMIX THERAPEUTICS INC., priority 2022, published 2025).

The structures appear in SMILES notation. pIC50: −log10 of the molar value.

The test system of this test is HTT. The experiment in a line: HiBiT protein abundance assay, HTT (K562 HiBiT knock-in). Format: cell-based, human. Conditions: HiBiT knock-in K562 cells, 24 hours, top dose 10 μM. In a few lines: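 Tagged-protein levels were measured as HiBiT/LgBiT luminescence in lysed K562 knock-in cells exposed to serially diluted compound (up to 10 μM final) for 24 hours. A four-parameter logistic regression of control-normalized signal yielded the IC50.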
Take `Cc1cc2nc(-c3ccc4nc(N5CCC(NC(C)(C)C)C5)ccc4n3)cn2c(C)n1` (stereo not drawn) [Compound 344, N-tert-butyl-1-(6-{5,7-dimethylimidazo[1,2-c]pyrimidin-2-yl}-1,5-naphthyridin-2-yl)pyrrolidin-3-amine]: the pIC50 is 5.00 to 6.00.
To `CCc1nc2cc(O)c(-c3ccc4nc(N5CCC(NC(C)(C)C)C5)ccc4n3)cc2o1` (stereo not drawn) [Compound 346, 6-{6-[3-(tert-butylamino)pyrrolidin-1-yl]-1,5-naphthyridin-2-yl}-2-ethyl-1,3-benzoxazol-5-ol] belongs 5.00 to 6.00; to `Cc1nc2cc(O)c(-c3ccc4nc(N5CC[C@H](N[C@H]6C[C@H](F)C6)C5)ccc4n3)cc2o1` [Compound 350, 2-methyl-6-{6-[(3S)-3-{[(1r,3r)-3-fluorocyclobutyl]amino}pyrrolidin-1-yl]-1,5-naphthyridin-2-yl}-1,3-benzoxazol-5-ol], more than 7.00.

Broadly, the pIC50 is the negative decadic logarithm of the IC50, by convention in mol/L. Higher therefore signals a small IC50.
